Laboratory results published in US20040053407A1, “Method for in vitro culture of ovarian follicles” (priority 2000, published 2004).

Tested on: secondary follicles (folliculogenesis)
Test: In vitro follicle culture testing the influence of taxol on folliculogenesis and oocyte maturation
Assay type: cell-based, mouse
Details: secondary follicles scored after 13 days
Excerpt: Ovarian tissue is isolated from 12 to 14 days old F1 hybrids C57Bl/j6×CBAca mice and kept in a culture dish comprising Leibovitz's L15 medium with GlutaMAX I™ (Gibco BRL 31415-029) with 10% HIA FBS (Heat Inactivated Foetal Bovine Serum) and 0.1% penicillin-streptomycin-mix (Gibco BRL 3032908). The ovaries have to be freed of oviduct and fat.
Not all follicles in suspension from example 1 are suitable for follicle culture. To make sure that all follicles grow at approximately the same rate, the selected follicles should have a similar diameter. In this specific case, a diameter of between 100 and 130 μm is suitable and points to development of the follicle up to the early preantral (secondary) stage. […] FIG. 2b. Said follicles further comprise theca-interstitial cells 17, a basal membrane 19 and a zona pellucida 21. Follicles are observed under a stereomicroscope and measured under an inverted microscope. Suitable follicles are picked up using suitably arranged pasteur pipettes and transferred to a cryovial (for stocking, see example 3) or to a culture plate (for follicle culture, see example 4).
When starting from secondary follicles, one can start immediately with culture using the second medium. This medium will promote adhesion to the culture recipient surface. Culture medium is refreshed every four days. On day 12, the culture medium is refreshed using the third medium in stead of the second. This medium will cause the release of a mucified oocyte-cumulus complex from the follicle overnight, while the oocyte finalises maturation.
Cultures are done in 75 μl of culture medium. When refreshing medium, 30 μl of used medium is removed and 30 μl of fresh medium is added. Schematically, both procedures can be summarised as follows:
The same method is used as in example 4. Secondary follicles are used. […] All media used in the culture steps are constituted as follows:
The culture medium is refreshed every 4 days by removing 30 μl and addition of 30 μl of fresh medium.
After 13 days, follicles are scored on survival, mucification, presence of polar body (PB), and oocyte diameter.

[1] = Taxol 0.01 nM in all media (plates 3+4)
[2] = Taxol 0.1 nM in all media (plates 5+6)
[3] = Taxol 1 nM in all media (plates 7+8)
[4] = Taxol 10 nM in all media (plate 9)

Mucification mean [1]: 100% | PB (presence of polar body) mean [1]: 75% | Mucification mean [2]: 96% | PB (presence of polar body) mean [2]: 75% | Mucification mean [3]: 96% | PB (presence of polar body) mean [3]: 55% | Mucification mean [4]: 0 | PB (presence of polar body) mean [4]: 0
Structure (SMILES): CC(=O)O[C@H]1C(=O)[C@@]2(C)[C@H]([C@H](OC(=O)c3ccccc3)[C@]3(O)C[C@H](OC(=O)[C@H](O)[C@@H](NC(=O)c4ccccc4)c4ccccc4)C(C)=C1C3(C)C)[C@]1(OC(C)=O)CO[C@@H]1C[C@@H]2O [Taxol]
Survival mean [1]: 87% | Survival mean [2]: 100% | Survival mean [3]: 92% | Survival mean [4]: 0%
